Data from patent US7741342B2, “Water-soluble thalidomine derivatives” (priority 2003, dated 2010).
Like-named read-outs stand apart in the source and are kept apart here.

Experiments:
[1] = buffer
[2] = aqueous solution stability; conditions: hydrochloride salt

| SMILES | aqueous solution stability t1/2 [1] [h] | aqueous solution stability t1/2 [2] [h] |
| --- | --- | --- |
| CN(C)CC(=O)OCN1C(=O)CCC(N2C(=O)c3ccccc3C2=O)C1=O.Cl (centres unmarked) [Example 5, Dimethylaminoacetic acid 2-(1-(hydroxymethyl)-2,6-dioxopiperidin-3-yl)isoindoline-1,3-dione ester hydrochloride salt] | > 4 |  |
| CC(C)[C@H](NC(=O)CN1CCCCC1)C(=O)OCN1C(=O)CCC(N2C(=O)c3ccccc3C2=O)C1=O.Cl (stereo partly drawn) [Example 3, (S)-2-(1-piperidinylacetamido)-3-methyl butyric acid 2-(1-(hydroxymethyl)-2,6-dioxopiperidin-3-yl)isoindoline-1,3-dione ester hydrochloride] |  | > 8 |
| CCN(CC)CC(=O)N[C@H](C(=O)OCN1C(=O)CCC(N2C(=O)c3ccccc3C2=O)C1=O)C(C)C.Cl (stereo partly drawn) [Example 1, (S)-2-(diethylaminoacetamido)-3-methyl butyric acid 2-(1-(hydroxymethyl)-2,6-dioxopiperidin-3-yl)isoindoline-1,3-dione ester hydrochloride] |  | > 8 |

Results, then the compound that gave them:

| aqueous solution stability t1/2 [1] [h] | aqueous solution stability t1/2 [2] [h] | SMILES |
| --- | --- | --- |
| > 8 |  | CCN(CC)CC(=O)OCN1C(=O)CCC(N2C(=O)c3ccccc3C2=O)C1=O.Cl (centres unmarked) [Example 4, Diethylaminoacetic acid 2-(1-(hydroxymethyl)-2,6-dioxopiperidin-3-yl)isoindoline-1,3-dione ester hydrochloride] |
|  | > 8 | CC(C)[C@H](NC(=O)CN(C)C)C(=O)OCN1C(=O)CCC(N2C(=O)c3ccccc3C2=O)C1=O.Cl (stereo partly drawn) [Example 2, (S)-2-(dimethylaminoacetamido)-3-methyl butyric acid 2-(1-(hydroxymethyl)-2,6-dioxopiperidin-3-yl)isoindoline-1,3-dione ester hydrochloride] |
